Structures can show the parent of a compound that is named as a salt. Marks after values point to notes of the source that are not given here.
B1: ^131I-B72.3: iodine-131 labeled anti-TAG72 monoclonal antibody B72.3 (radioimmunoconjugate) (conjugate, chains of the INN, looked up)
VH: QVQLQQSDAELVKPGASVKISCKASGYTFTDHAIHWAKQKPEQGLEWIGYISPGNDDIKYNEKFKGKATLTADKSSSTAYMQLNSLTSEDSAVYFCKRSYYGHWGQGTTLTVSS
VL: DIQMTQSPASLSVSVGETVTITCRASENIYSNLAWYQQKQGKSPQLLVYAATNLADGVPSRFSGSGSGTQYSLKINSLQSEDFGSYYCQHFWGTPYTFGGGTRLEIK
modifications: iodine-131 label

Key:
[1] = system: LS174T human colorectal adenocarcinoma xenografts; assay: Radioimmunotherapy of SQ LS174T xenografts in athymic mice, with or without COMPOUND I mesylate; settings: for Relative tumor growth: relative to no treatment = 1
LS174T cells = assay: Effect of COMPOUND I mesylate on radiosensitivity of in vitro grown cells; format: cell-based, human
LS174T SQ xenografts = assay: Effect of COMPOUND I on radiosensitivity of adenocarcinoma xenografts (external radiation); settings: P=0.127, Mantel-Cox logrank analysis

Row | Molecule | Tq (days) ([1]; quadrupling time calculated on day 10 (*), COMPOUND I mesylate PO BID 2 mg/mouse/day) | Relative tumor growth [1] | effect on radiosensitivity, combined with radiation (LS174T cells; monolayer, irradiation 1.95 Gy/min, total doses 1 Gy and 6 Gy) | effect on cell cycle (LS174T cells; pharmacologically relevant concentrations) | difference between radiation plus COMPOUND I mesylate and radiation only (LS174T SQ xenografts) | tumor response ([1]; escalating doses) | Tq (days) ([1]; quadrupling time calculated on day 28 (**) after 0.25 mCi ^131I-B72.3 IV) | tumor response ([1]; single dose of 0.5 mCi or similar doses) | effect of combined treatment with COMPOUND I mesylate in vitro (LS174T cells; ^131I-labeled antibody plus COMPOUND I mesylate)
1 | Cc1ccc(NC(=O)c2ccc(CN3CCN(C)CC3)cc2)cc1Nc1nccc(-c2cccnc2)n1 [COMPOUND I mesylate] | 7.75* days | 1 | not sufficient in vitro to synchronize all cells | Arrest of LS174T cells in the G1 phase | no statistical differences |  |  |  | 
2 | B1 |  | 2.4 |  |  |  | cures and tumor growth arrest | 18.95** days | growth delay but no cures | neither additive nor synergistic effects are measurable
